Values joined by “and” are separate entries in the source; they are usually repeats but may differ in a detail not shown here. Equal values may be shown once.
Key:
[1] = Human pharmacokinetics predicted from preclinical data; conditions: in humans, based on preclinical data
[2] = tested on: locally advanced or metastatic selected solid tumors (ER+HER2− breast cancer, CRPC, or NSCLC); experiment: Phase 1 clinical trial: clinical efficacy (tumor response); assay type: in vivo, human; conditions: for confirmed and durable partial responses (PR): ER+/HER2− breast cancer; for confirmed and durable partial responses, response-evaluable pts with ER+/HER2− mBC: progressed on prior ET+CDK4/6 inhibitor
From the text: The patients in this trial are intolerant of or resistant to standard therapy.
Study Design: The overall study design is depicted in FIG. 1. The study contains two parts, a dose escalation (Part 1) followed by a dose expansion (Part 2). Not shown in FIG. 1 are Part 1D and Part 2D, which are additional arms in Part 1 and Part 2 in the study design and are described below.
Part 1A (Monotherapy Dose Escalation) contains dose escalation as monotherapy in patients with locally advanced or metastatic ER+HER2− breast cancer, CRPC, or NSCLC that is resistant or intolerant to standard therapy or for whom no standard therapy is available, to determine the maximum tolerated dose (MTD) and select the RDE. […] A 2-parameter Bayesian Logistic Regression Model (BLRM) was used for dose finding.
Part 1B (Combination Dose Escalation), COMPOUND A in combination with fulvestrant was evaluated for dose finding in patients with locally advanced or metastatic ER+HER2− breast cancer (2L+) who progressed after at least one line of treatment with an endocrine therapy and a CDK4/6 inhibitor to determine the MTD and RDE for this combination. Combination RDE may be different from monotherapy RDE due to potential toxicity overlap. A 5-parameter BLRM was used for dose finding.

[3] = Parts 1A + 1B, of the 10 with SD
[4] = as of 23 Mar. 2022, 31 patients dosed

## COc1ccccc1S(=O)(=O)Nc1noc2cc(Cn3cccn3)cc(OC)c12 [COMPOUND A, 2-Methoxy-N-{4-methoxy-6-[(1H-pyrazol-1-yl)methyl]-1,2-benzoxazol-3-yl}benzene-1-sulfonamide]
[1]
  predicted Vss: ~0.1 L/kg
  predicted oral bioavailability: high oral bioavailability
  predicted plasma CL: ~6 mL/h/kg
  predicted t: approximately 12 h
[2]; 1 patient in Part 1A
  Duration of response (DOR): 19.4 months
[2]; 2 patients in Part 1B (one value per patient)
  Duration of response (DOR): 8.1 months and 10 months
[2]; 31 participants treated, cut-off 23 Mar. 2022
  clinical efficacy: early signs of clinical efficacy
[2]; Part 1A (8 mg monotherapy)
  confirmed and durable partial responses (PR): 1 patients
[2]; Part 1A (monotherapy)
  confirmed and durable partial responses, response-evaluable pts with ER+/HER2− mBC: ⅛
[2]; Part 1B (5 mg QD + fulvestrant)
  confirmed and durable partial responses, response-evaluable pts with ER+/HER2− mBC: 2/4
[2]; Part 1B (5 mg QD/fulvestrant 500 mg)
  confirmed and durable partial responses (PR): 2 patients
[2]; [3]
  Stable disease (SD), patients with CRPC: 4
  Stable disease (SD), patients with ER+/HER2− breast cancer: 5
  Stable disease (SD), patients with NSCLC: 1
[2]; among response-evaluable patients (n=22)
  confirmed and durable partial responses (PR): 3 patients
[2]; as of 30 Sep. 2022
  clinical responses in heavily treated patients with ER+HER2− breast cancer: confirmed and durable clinical responses were observed
  patients with SD lasting ≥6 months: Three
[2]; during dose escalation, as of 23 Mar. 2022
  efficacy in ER+HER2− breast cancer patients: signs of efficacy
[2]; patient with CRPC, 5 mg QD
  duration of SD: 9.1 months
[2]; patient with CRPC, 15 mg QD
  duration of SD: 11.3 months
[2]; patient with ER+/HER2− breast cancer, 8 mg QD
  duration of SD: 7.5 months
As of 23 Mar. 2022
  COVID-19, all-causality SAE, by patient frequency: 2
[4]
  COVID-19, all-causality Grade 3 TEAE: 3.2%
  Pneumonitis, Grade 5 TEAE: 3.2%
  Pneumonitis, Grade 5 treatment-related AE: 3.2%
  Urinary tract infection, all-causality Grade 3 TEAE: 3.2%
cut-off 30 Sep. 2022
  MTD: not identified
human, in vivo
  Alanine aminotransferase increased, all-causality Grade 3 TEAE: 6.5%
  Alanine aminotransferase increased, all-causality TEAE, any grade: 25.8%
  Anaphylactic reaction, all-causality Grade 3 TEAE: 3.2%
  Anemia, Grade 3 treatment-related AE: 16.1%
  Anemia, TRAE, any grade: 54.8%
  Anemia, all-causality Grade 3 TEAE: 16.1%
  Anemia, all-causality TEAE, any grade: 54.8%
  Aspartate aminotransferase increased, all-causality TEAE, any grade: 29.0%
  Bone pain, all-causality SAE, by patient frequency: 1
  Diarrhea, Grade 3 treatment-related AE: 3.2%
  Diarrhea, TRAE, any grade: 29.0%
  Diarrhea, all-causality Grade 3 TEAE: 3.2%
  Diarrhea, all-causality TEAE, any grade: 35.5%
  Dysgeusia, TRAE, any grade: 80.6%
  Dysgeusia, all-causality TEAE, any grade: 83.9%
  Dysphagia, all-causality SAE, by patient frequency: 1
  Embolism, Grade 3 treatment-related AE: 3.2%
  Embolism, all-causality Grade 3 TEAE: 3.2%
  Embolism, all-causality SAE, by patient frequency: 1
  Fatigue, all-causality Grade 3 TEAE: 3.2%
  Fatigue, all-causality TEAE, any grade: 25.8%
  Flank pain, all-causality Grade 3 TEAE: 3.2%
  Flank pain, all-causality SAE, by patient frequency: 1
  Grade 4 treatment-related AEs: no Grade 4 treatment-related AEs
  Haematuria, all-causality Grade 3 TEAE: 3.2%
  Haematuria, all-causality SAE, by patient frequency: 1
  Hypercalcaemia, Grade 4 TEAE: 3.2%
  Hypotension, all-causality Grade 3 TEAE: 6.5%
  Hypotension, all-causality SAE, by patient frequency: 2
  Hypotension, treatment-related SAE, by patient frequency: 1
  Lymphocyte count decreased, Grade 3 treatment-related AE: 3.2%
  Lymphocyte count decreased, all-causality Grade 3 TEAE: 6.5%
  Neutrophil count decreased/Neutropenia, Grade 3 treatment-related AE: 29.1%
  Neutrophil count decreased/Neutropenia, TRAE, any grade: 51.6%
  Neutrophil count decreased/Neutropenia, all-causality Grade 3 TEAE: 29.1%
  Neutrophil count decreased/Neutropenia, all-causality TEAE, any grade: 51.6%
  Platelet count decreased, TRAE, any grade: 22.6%
  Platelet count decreased, all-causality TEAE, any grade: 22.6%
  Pneumonitis, all-causality SAE, by patient frequency: 1
  Pneumonitis, treatment-related SAE, by patient frequency: 1
  Pulmonary embolism, all-causality Grade 3 TEAE: 3.2%
  Thrombocytopenia, Grade 3 treatment-related AE: 3.2%
  Thrombocytopenia, all-causality Grade 3 TEAE: 3.2%
  White blood cell count decreased, Grade 3 treatment-related AE: 9.7%
  White blood cell count decreased, TRAE, any grade: 29.0%
  White blood cell count decreased, all-causality Grade 3 TEAE: 9.7%
  White blood cell count decreased, all-causality TEAE, any grade: 29.0%
  all-causality SAEs, Total Number of Cases: 9
  all-causality SAEs, Total Number of Subjects: 8
  all-causality SAEs, Total Number of events: 10
  patients with at least one TEAE: 31 patients
  patients with at least one treatment-related adverse event (TRAE): 31 patients
  severity of TRAEs: majority of TRAEs were G1-2
  treatment-related SAEs, Total Number of Cases: 2
  treatment-related SAEs, Total Number of Subjects: 2
  treatment-related SAEs, Total Number of events: 2
human, in vivo, 28 days
  RDE: 5 mg QD
  Recommended dose for expansion (RDE): 5 mg QD
  kind of DLTs: Grade 3 neutropenia

Source: patent publication US20260027087A1, “DOSING REGIMENS COMPRISING A KAT6 INHIBITOR FOR THE TREATMENT OF CANCER” (PFIZER INC., priority 2022, published 2026)
